Converted amounts (≈) assume the structure as drawn. Read-outs that look alike come from different tables or passages of the source.
Columns and labels:
alkaline phosphatase = conditions: requires alkaline phosphatase; cited from earlier work
[1] = background and U.S. Pat. No. 4,322,410; cited from earlier work
[2] = Solubility of acetaminophen prodrugs in water; type: physicochemical
[3] = cited from earlier work
[4] = Goodman and Gillman's; cited from earlier work
rat hippocampus = rat hippocampus insulted with quinolinic acid; cited from earlier work
myocytes = conditions: guinea pigs, low-flow global myocardial ischemia 30 minutes, then 60 minutes of reperfusion; cited from earlier work
[5] = water, room temperature, read-out: solubility in water at room temperature
[6] = Anesthesia and Analgesia 101, 90-96, 2005
[7] = British Journal of Anaesthesia 94 (5): 642-648, 2005

CC(=O)Nc1ccc(OP(=O)(O)O)cc1 [4-acetamidophenyl dihydrogen phosphate]
time in vitro to yield acetaminophen from the derivative (alkaline phosphatase): about 15 hours
water solubility [1]: 50 g per 100 mL

CC(=O)Nc1ccc(OCOP(=O)(O)O)cc1 [(4-acetamidophenoxy)methyl dihydrogen phosphate]
solubility [2, 5]: ~145 mg/mL
solubility ([2]; water, solvent water, read-out: Solubility): 145 mg/mL

CC(=O)Nc1ccc(O)cc1 [Acetaminophen, N-(4-hydroxyphenyl)acetamide]
local tolerance profile [3, 6]: 0%
local tolerance profile [3, 7]: 52%
half-life [4]: about 2 hours
solubility [2, 5]: ~13 mg/mL (≈ 86 mM)
lipid peroxidation and superoxide anion generation (rat hippocampus): inhibit both lipid peroxidation and superoxide anion generation
water solubility [1]: about 1.3 g per 100 mL
apoptosis in myocytes (myocytes): decrease apoptosis in myocytes

CCN(CC)CC(=O)Oc1ccc(NC(C)=O)cc1 [Propacetamol, 4-acetamidophenyl 2-(diethylamino)acetate]
local tolerance profile [3, 6]: 49%
local tolerance profile [3, 7]: 90%

CC(=O)Nc1ccc(OCOP(=O)(O)O)cc1 [Sodium (4-acetamidophenoxy)methyl phosphate]
solubility ([2]; solvent water, phosphate): 160 mg/mL
solubility in water at room temperature ([2]; water, room temperature, phosphate): ~160 mg/mL

Source: patent US11021498B2 (Acorda Therapeutics, Inc., priority 2008, dated 2021)
